Experiment [1] relates to L1210. As to the kind of experiment: Cytotoxicity against mouse L1210 cells. In kind it is functional, cell-based.
Experiment [2] relates to A498. As to the kind of experiment: Inhibition of cell growth in human A498 cells by SRB assay. In kind it is functional. As to conditions: read-out: ED50 (the source's name). (In general: The SRB assay estimates cell density from bound dye.)
For experiment [3], the system named is KM-20L2. As to the kind of experiment: Inhibition of cell growth in human KM-20L2 cells by SRB assay. In kind it is functional. As to conditions: read-out: ED50 (the source's name).
In experiment [4] the test system is NCI-H460. The experiment in a line: Inhibition of cell growth in human NCI-H460 cells by SRB assay. It counts as functional. As to conditions: read-out: ED50 (the source's name).
For experiment [5], the system named is SK-MEL-5. The experiment in a line: Inhibition of cell growth in human SK-MEL-5 cells by SRB assay. It counts as functional. Conditions: read-out: ED50 (the source's name).
Experiment [6] deals with SF-295. As to the kind of experiment: Inhibition of cell growth in human SF-295 cells by SRB assay. In kind it is functional. Conditions: read-out: ED50 (the source's name).
Experiment [7] relates to OVCAR-3. As to the kind of experiment: Inhibition of cell growth in human OVCAR-3 cells by SRB assay. In kind it is functional. Conditions: read-out: ED50 (the source's name).
The test system of experiment [8] is CNE. The experiment in a line: Cytotoxicity against human CNE cells incubated for 72 hrs by MTT assay. In kind it is functional, cell-based. On the technique in general: Tetrazolium dyes change colour on reduction, which living cells bring about.
The test system of experiment [9] is LoVo. The experiment in a line: Cytotoxicity against human LoVo cells incubated for 72 hrs by MTT assay. It counts as functional, cell-based.
Experiment [10] concerns Bel-7402. The experiment in a line: Cytotoxicity against human Bel-7402 cells incubated for 72 hrs by MTT assay. In kind it is functional, cell-based. As to conditions: Bel-7402, 72 h.
The test system of experiment [11] is HepG2. As to the kind of experiment: Cytotoxicity against human HepG2 cells incubated for 72 hrs by MTT assay. It counts as functional, cell-based. As to conditions: HepG2, 72 h.
Experiment [12] deals with HeLa. The experiment in a line: Cytotoxicity against human HeLa cells incubated for 72 hrs by MTT assay. In kind it is functional, cell-based.
For experiment [13], the system named is MCF7. The experiment in a line: Cytotoxicity against human MCF7 cells incubated for 72 hrs by MTT assay. Conditions: MCF7, 72 h. In kind it is functional, cell-based.
Experiment [14] in a line: Inhibition of recombinant human MAPK expressed in Escherichia coli assessed as reduction in MEK-1 phosphorylation incubated for 60 mins by ELISA assay. For orientation: An ELISA detects its analyte on a solid surface through an enzyme-linked reagent.
Experiment [15] has as its system LoVo. As to the kind of experiment: Inhibition of cell growth in human LoVo cells by SRB assay. In kind it is functional, cell-based.
For experiment [16], the target named is Cyclin-dependent kinase 4 (Homo sapiens, UniProt P11802). As to the kind of experiment: Inhibition of CDK4 (unknown origin).
Chain of Cyclin-dependent kinase 4 (P11802 whole entry): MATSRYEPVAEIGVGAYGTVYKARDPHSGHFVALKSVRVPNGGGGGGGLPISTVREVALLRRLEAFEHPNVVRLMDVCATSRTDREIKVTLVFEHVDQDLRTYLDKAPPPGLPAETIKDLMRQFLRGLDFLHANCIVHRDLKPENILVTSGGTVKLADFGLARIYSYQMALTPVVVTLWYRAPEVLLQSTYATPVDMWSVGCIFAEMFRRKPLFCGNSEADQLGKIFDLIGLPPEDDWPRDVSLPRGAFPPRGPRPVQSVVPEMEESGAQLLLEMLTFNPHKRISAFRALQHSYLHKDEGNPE
Experiment [17] deals with Receptor tyrosine-protein kinase erbB-2 (Homo sapiens, UniProt P04626). The experiment in a line: Inhibition of c-ErbB-2 (unknown origin).
Chain of Receptor tyrosine-protein kinase erbB-2 (P04626 whole entry): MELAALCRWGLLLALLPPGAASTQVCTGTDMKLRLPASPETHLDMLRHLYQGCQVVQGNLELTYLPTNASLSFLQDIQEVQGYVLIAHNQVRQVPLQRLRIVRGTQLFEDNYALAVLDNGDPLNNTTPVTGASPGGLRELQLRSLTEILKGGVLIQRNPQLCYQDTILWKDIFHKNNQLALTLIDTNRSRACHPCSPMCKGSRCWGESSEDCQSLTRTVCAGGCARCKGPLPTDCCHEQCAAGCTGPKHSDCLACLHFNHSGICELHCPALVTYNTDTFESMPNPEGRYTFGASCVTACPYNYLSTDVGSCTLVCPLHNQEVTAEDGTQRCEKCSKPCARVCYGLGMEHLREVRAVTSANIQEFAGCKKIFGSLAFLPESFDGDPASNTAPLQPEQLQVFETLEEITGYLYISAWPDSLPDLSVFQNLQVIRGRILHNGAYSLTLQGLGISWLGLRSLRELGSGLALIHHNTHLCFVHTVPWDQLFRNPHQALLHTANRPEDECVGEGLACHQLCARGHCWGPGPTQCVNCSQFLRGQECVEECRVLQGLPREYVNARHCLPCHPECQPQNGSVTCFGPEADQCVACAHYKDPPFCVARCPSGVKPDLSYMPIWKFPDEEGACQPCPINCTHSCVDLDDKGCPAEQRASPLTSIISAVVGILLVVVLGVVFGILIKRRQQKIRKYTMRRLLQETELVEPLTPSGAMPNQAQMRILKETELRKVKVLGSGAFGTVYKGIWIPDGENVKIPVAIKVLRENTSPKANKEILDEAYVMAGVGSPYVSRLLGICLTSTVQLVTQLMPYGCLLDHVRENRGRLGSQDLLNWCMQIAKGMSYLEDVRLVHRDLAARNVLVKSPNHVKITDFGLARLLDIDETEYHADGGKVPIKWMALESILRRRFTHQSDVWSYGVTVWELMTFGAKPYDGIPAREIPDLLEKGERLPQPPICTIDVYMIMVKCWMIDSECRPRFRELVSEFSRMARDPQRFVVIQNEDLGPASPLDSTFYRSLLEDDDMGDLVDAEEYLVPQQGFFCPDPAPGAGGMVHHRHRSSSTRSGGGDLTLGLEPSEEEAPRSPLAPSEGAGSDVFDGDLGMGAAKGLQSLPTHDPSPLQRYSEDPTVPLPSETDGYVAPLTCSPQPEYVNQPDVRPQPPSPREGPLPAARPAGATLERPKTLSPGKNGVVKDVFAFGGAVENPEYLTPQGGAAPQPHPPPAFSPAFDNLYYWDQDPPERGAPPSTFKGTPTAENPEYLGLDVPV
In experiment [18] the test system is P388. As to the kind of experiment: Cytotoxicity against mouse P388 cells. It counts as functional, cell-based.
Experiment [19] concerns Jurkat. The experiment in a line: Antiinflammatory activity in PMA induced human Jurkat cells assessed as inhibition of IL-2 production by EIA assay. It counts as functional, cell-based.
Experiment [20] deals with MCF7. As to the kind of experiment: Cytotoxicity against human MCF7 cells by MTT assay. It counts as functional, cell-based.
Experiment [21] relates to WRL68. As to the kind of experiment: Cytotoxicity against human WRL68 cells by MTT assay. In kind it is functional, cell-based.
Experiment [22] has as its system Caco-2. The experiment in a line: Cytotoxicity against human Caco-2 cells by MTT assay. It counts as functional, cell-based.
Experiment [23] addresses E3 ubiquitin-protein ligase CBL-B (Homo sapiens, UniProt Q13191). The experiment in a line: Inhibition of Cbl-b (unknown origin) assessed as inhibition of Cbl-b dependent ubiquitination in presence of ATP measured after 13 hrs by fluorescence microplate reader assay.
For experiment [24], the system named is HT-29. As to the kind of experiment: Cytotoxicity against human HT-29 cells assessed as cell growth inhibition by cell based assay. In kind it is functional.
Experiment [25] concerns PSN1. As to the kind of experiment: Cytotoxicity against human PSN1 cells assessed as cell growth inhibition by cell based assay. It counts as functional.
Experiment [26] concerns MDA-MB-231. The experiment in a line: Cytotoxicity against human MDA-MB-231 cells assessed as cell growth inhibition by cell based assay. It counts as functional.
Experiment [27] relates to A549. The experiment in a line: Cytotoxicity against human A549 cells assessed as cell growth inhibition by cell based assay. In kind it is functional.
The subject of experiment [28] is KB. The experiment in a line: Cytotoxicity against human KB cells. It counts as functional, cell-based.
Experiment [29] concerns K562. As to the kind of experiment: Cytotoxicity against human K562 cells. In kind it is functional, cell-based.

The structures appear in SMILES notation.

As usually defined, the IC50 is the concentration that inhibits the measured activity by half. What is called GI50 is the concentration at which growth is held to half of that of the control.

Chain of E3 ubiquitin-protein ligase CBL-B (Q13191 whole entry): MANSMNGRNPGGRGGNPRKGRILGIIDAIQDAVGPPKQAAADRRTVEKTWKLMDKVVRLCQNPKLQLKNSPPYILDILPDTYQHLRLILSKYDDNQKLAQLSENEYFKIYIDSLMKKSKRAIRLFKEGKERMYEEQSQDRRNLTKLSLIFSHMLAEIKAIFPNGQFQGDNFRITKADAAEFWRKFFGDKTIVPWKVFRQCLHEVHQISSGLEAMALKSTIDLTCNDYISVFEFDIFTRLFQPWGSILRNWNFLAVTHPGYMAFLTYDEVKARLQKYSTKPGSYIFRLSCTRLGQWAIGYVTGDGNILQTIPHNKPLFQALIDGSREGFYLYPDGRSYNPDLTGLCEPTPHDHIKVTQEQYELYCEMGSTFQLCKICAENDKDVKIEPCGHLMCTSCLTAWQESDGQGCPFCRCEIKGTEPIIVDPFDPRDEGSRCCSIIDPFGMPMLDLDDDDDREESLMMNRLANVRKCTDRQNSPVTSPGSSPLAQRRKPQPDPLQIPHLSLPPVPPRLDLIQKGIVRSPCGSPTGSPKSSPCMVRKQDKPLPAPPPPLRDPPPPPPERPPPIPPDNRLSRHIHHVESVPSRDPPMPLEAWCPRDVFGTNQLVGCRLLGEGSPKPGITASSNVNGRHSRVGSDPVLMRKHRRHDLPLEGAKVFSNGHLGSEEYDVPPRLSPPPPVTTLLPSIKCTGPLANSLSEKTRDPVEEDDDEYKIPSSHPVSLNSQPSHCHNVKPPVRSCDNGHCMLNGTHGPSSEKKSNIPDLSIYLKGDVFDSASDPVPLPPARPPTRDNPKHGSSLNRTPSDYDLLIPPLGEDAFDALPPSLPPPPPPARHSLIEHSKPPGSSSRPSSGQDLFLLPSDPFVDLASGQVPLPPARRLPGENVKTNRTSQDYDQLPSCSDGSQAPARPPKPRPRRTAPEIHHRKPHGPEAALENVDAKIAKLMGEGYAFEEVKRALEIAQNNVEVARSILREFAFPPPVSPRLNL

`CO[C@]12C[C@@H](CNC(=O)c3cc(Br)c[nH]3)O[C@H]1NC(=O)N2`: in [1], inhibition was half-maximal at 19.6 µM (IC50).

Compound `CO[C@@]12C[C@@H](CNC(=O)c3cc(Br)c[nH]3)O[C@@H]1NC(=O)N2` returned an IC50 in experiment [1] of 20.9 µM.

With `O=C1NC2n3c(cc(Br)c3Br)C(=O)N3CCCC23N1` (stereo not given), the EC50 in experiment [2] was determined as 0.53 µM; in [3] it was 0.28 µM; in experiment [4], 1.59 µM; in experiment [5], 0.28 µM; in experiment [6], 3.85 µM; in experiment [7] it was 1.18 µM.

On to `COC(=O)C(NCC(=O)c1cc(Br)c(Br)[nH]1)C(C)C` (stereo not given), for which the IC50 is 43.5 µM in experiment [8]; 0.96 µM in experiment [9]; 27.8 µM in experiment [10]; 15.3 µM in experiment [11]; 13.8 µM in experiment [12]; 28.6 µM in experiment [13].

With `NC1=N/C(=C2\CCNC(=O)c3[nH]c(Br)cc32)C(=O)N1`, the half-inhibitory concentration (IC50) in experiment [14] and in experiment [15] was 0.003 µM each time.

`N=C1NC(=O)/C(=C2/CCNC(=O)c3[nH]c(Br)c(Br)c32)N1`: the half-inhibitory concentration (IC50) in experiment [16] was determined as 98.5 µM; in experiment [17], 21 µM.

For `N=C1NC(=O)/C(=C2/CCNC(=O)c3[nH]cc(Br)c32)N1`, the IC50 in experiment [16] was determined as 29.6 µM; in [17], 18.5 µM.

`COCNC(=O)c1cc(Br)c(Br)[nH]1`: in experiment [18] (read-out: ED50 (the source's name)), the EC50 is 69.4 µM.

For the compound `NC1=NC(=O)/C(=C2\CCNC(=O)c3[nH]c4ccccc4c32)N1`, the 50% inhibitory concentration (IC50) in experiment [19] worked out at 3.5 µM.

For `Cc1ccccc1NC(=S)NNC(=O)c1cc(Br)c(Br)n1C`, the IC50 in experiment [20], in experiment [21] and in experiment [22] was 0.07 µM throughout.

Turning to `Cn1cc(Br)cc1C(=O)NC[C@H]1CC2N=C(N)NC2[C@@H](c2c[nH]c(N)n2)[C@@H]1CNC(=O)c1cc(Br)cn1C` (stereo not given in full), in experiment [23], the 50% inhibitory concentration (IC50) was 18 µM.

In the case of `CN1C(=O)C[C@H](C(N)=O)NC(=O)C(O)CNC(=O)[C@H](CNC(=O)c2cc(Br)c(Br)[nH]2)NC(=O)[C@H](CN)NC(=O)C1Cc1cnc(Cl)[nH]1` (stereo not given in full), the concentration for 50% growth inhibition (GI50) in [24], in experiment [25], in experiment [26] and in experiment [27] was more than 12 µM in each case.

In the case of `Cn1c(Br)ccc1C(=O)NC[C@H]1CC2N=C(N)NC2[C@@H](c2c[nH]c(N)n2)[C@@H]1CNC(=O)c1cc(Br)c[nH]1` (stereo not given in full), the IC50 in experiment [23] amounted to 18 µM.

In the case of `NC1NC(/C=C/CNC(=O)c2cc(Br)c(Br)[nH]2)=C([n+]2cccc(O)c2)N1` (stereo not given), the IC50 in [28] and in [29] was 20.7 µM in each case.

For the compound `NC1NC[C@H](O)[C@@]2(N1)[C@H]1[C@H](CN3C(=O)c4cc(Br)cn4[C@H]4NC(N)N[C@@]413)[C@H](CNC(=O)c1cc(Br)c(Br)[nH]1)[C@@H]2Cl` (stereo not given in full), the IC50 was 26.7 µM in experiment [28], 26.1 µM in [16] and 26.7 µM in experiment [1].

For `O=C(NNC(=S)Nc1ccc(Cl)cc1)c1cc(Br)c(Br)[nH]1`, the 50% inhibitory concentration (IC50) in experiment [20], in experiment [21] and in experiment [22] was 0.03 µM throughout.

For the compound `O=C(NNC(=S)Nc1ccc([N+](=O)[O-])cc1)c1cc(Br)c(Br)[nH]1`, the IC50 in experiment [20], in [21] and in experiment [22] was 0.03 µM throughout.

Compound `NC1=N[C@@]23CCCN2C(=O)c2c([nH]c(Br)c2Br)[C@H]3N1` gave an IC50 in experiment [18] of 20.3 µM.

`Cn1cc(Br)cc1C(=O)NC[C@H]1CC2N=C(N)NC2[C@@H](c2c[nH]c(N)n2)[C@@H]1CNC(=O)c1cc(Br)c[nH]1` (stereo not given in full): the IC50 in experiment [23] came out at 18 µM.

In the case of `NC1=N[C@]23[C@H](N1)c1[nH]c(Br)c(Br)c1C(=O)N2C[C@H](O)[C@H]3O`, in experiment [18], the IC50 worked out at 78.4 µM.
